For data set [1], the target named is T1, human GLP-1R (Homo sapiens, UniProt P43220, L260F).
T1 construct: expressed in transfected cells
In words: CHO GLP-1R Clone C6 - Assay 2 (HTRF cAMP agonist assay, low receptor density). The data set is classed as cell-based. As to conditions: CHO GLP-1R Clone C6 (low receptor density); for Emax: arithmetic mean, relative to 1 μM GLP-1; for EC50: geometric mean. (TR-FRET usually uses a lanthanide donor and a delayed reading to cut background.)
Method: GLP-1R-mediated agonist activity was determined with a cell-based functional assay utilizing an HTRF (Homogeneous Time-Resolved Fluorescence) cAMP detection kit (cAMP HI Range Assay Kit; Cis Bio cat #62AM6PEJ) that measures cAMP levels in the cell. The method is a competitive immunoassay between native cAMP produced by the cells and exogenous cAMP labeled with the dye d2. The tracer binding is visualized by a mAb anti-cAMP labeled with Cryptate. The specific signal (i.e. energy transfer) is inversely proportional to the concentration of cAMP in either a standard or an experimental sample.
The human GLP-1R coding sequence (NCBI Reference Sequence NP_002053.3, including naturally-occurring variant Leu260Phe) was subcloned into pcDNA5-FRT-TO and a clonal CHO cell line stably expressing a low receptor density was isolated using the Flp-In™ T-Rex™ System, as described by the manufacturer (ThermoFisher).
Cells were removed from cryopreservation, re-suspended in 40 mL of Dulbecco's Phosphate Buffered Saline (DPBS—Lonza Cat #17-512Q) and centrifuged at 800×g for 5 minutes at 22° C. The DPBS was aspirated, and the cell pellet was re-suspended in 10 mL of complete growth medium (DMEM:F12 1:1 Mixture with HEPES, L-Gln, 500 mL (DMEM/F12 Lonza Cat #12-719F), 10% heat inactivated fetal bovine serum (Gibco Cat #16140-071), 5 mL of 100× Pen-Strep (Gibco Cat #15140-122), 5 mL of 100× L-Glutamine (Gibco Cat #25030-081), 700 μg/mL Hygromycin (Invitrogen Cat #10687010) and 15 μg/mL Blasticidin (Gibco Cat #R21001). A 1 mL sample of the cell suspension in growth media was counted on a Becton Dickinson ViCell to determine cell viability and cell count per mL. The remaining cell suspension was then adjusted with growth media to deliver 1600 viable cells per well using a Matrix Combi Multidrop reagent dispenser, and the cells were dispensed into a white 384 well tissue culture treated assay plate (Corning 3570). The assay plate was then incubated for 48 hours at 37° C. in a humidified environment (95% O2, 5% CO2)
Varying concentrations of each compound to be tested (in DMSO) were diluted in assay buffer [HBSS with Calcium/Magnesium (Lonza/BioWhittaker cat #10-527F)/0.1% BSA (Sigma Aldrich cat #A7409-1L)/20 mM HEPES (Lonza/BioWhittaker cat #17-737E)] containing 100 μM 3-isobutyl-1-methylxanthin (IBMX; Sigma cat #15879). The final DMSO concentration in the compound/assay buffer mixture is 1%.
After 48 hours, the growth media was removed from the assay plate wells, and the cells were treated with 20 μL of the serially diluted compound in assay buffer for 30 minutes at 37° C. in a humidified environment (95% O2, 5% CO2). Following the 30 minute incubation, 10 μL of labeled d2 cAMP and 10 μL of anti-cAMP antibody (both diluted 1:20 in cell lysis buffer; as described in the manufacturer's assay protocol) were added to each well of the assay plate. The plates were then incubated at room temperature and after 60 minutes, changes in the HTRF signal were read with an Envision 2104 multi-label plate reader using excitation of 330 nm and emissions of 615 and 665 nm. Raw data were converted to nM cAMP by interpolation from a cAMP standard curve (as described in the manufacturer's assay protocol) and the percent effect was determined relative to a saturating concentration of the full agonist GLP-1 (1 μM) included on each plate. EC50 determinations were made from agonist dose response curves analyzed with a curve fitting program using a 4-parameter logistic dose response equation.

Data set [2] addresses human GLP-1R (Homo sapiens, UniProt P43220, G168S). The data set is described as follows: CHO GLP-1R Clone H6 - Assay 1 (HTRF cAMP agonist assay). As to conditions: read-out: Assay 1 Emax (%).
Method: (§1) GLP-1R-mediated agonist activity was determined with a cell-based functional assay utilizing an HTRF (Homogeneous Time-Resolved Fluorescence) cAMP detection kit (cAMP HI Range Assay Kit; CisBio cat #62AM6PEJ) that measures cAMP levels in the cell. The method is a competitive immunoassay between native cAMP produced by the cells and exogenous cAMP labeled with the dye d2. The tracer binding is visualized by a mAb anti-cAMP labeled with Cryptate. The specific signal (i.e. energy transfer) is inversely proportional to the concentration of cAMP in either standard or experimental sample.
(§2) The human GLP-1R coding sequence (NCBI Reference Sequence NP_002053.3, including naturally-occurring variant Gly168Ser) was subcloned into pcDNA3 (Invitrogen) and a cell line stably expressing the receptor was isolated (designated Clone H6).
(§3) Cells were removed from cryopreservation, re-suspended in 40 mL of Dulbecco's Phosphate Buffered Saline (DPBS—Lonza Cat #17-512Q) and centrifuged at 800×g for 5 minutes at 22° C. The cell pellet was then re-suspended in 10 mL of growth medium [DMEM/F12 1:1 Mixture with HEPES, L-Gln, 500 mL (DMEM/F12 Lonza Cat #12-719F), 10% heat inactivated fetal bovine serum (Gibco Cat #16140-071), 5 mL of 100× Pen-Strep (Gibco Cat #15140-122), 5 mL of 100× L-Glutamine (Gibco Cat #25030-081) and 500 μg/mL Geneticin (G418) (Invitrogen #10131035)]. A 1 mL sample of the cell suspension in growth media was counted on a Becton Dickinson ViCell to determine cell viability and cell count per mL. The remaining cell suspension was then adjusted with growth media to deliver 2000 viable cells per well using a Matrix Combi Multidrop reagent dispenser, and the cells were dispensed into a white 384 well tissue culture treated assay plate (Corning 3570). The assay plate was then incubated for 48 hours at 37° C. in a humidified environment in 5% carbon dioxide.
(§4) Varying concentrations of each compound to be tested (in DMSO) were diluted in assay buffer (HBSS with Calcium/Magnesium (Lonza/BioWhittaker cat #10-527F)/0.1% BSA (Sigma Aldrich cat #A7409-1L)/20 mM HEPES (Lonza/BioWhittaker cat #17-737E) containing 100 μM 3-isobutyl-1-methylxanthin (IBMX; Sigma cat #15879). The final DMSO concentration is 1%.
(§5) After 48 hours, the growth media was removed from the assay plate wells, and the cells were treated with 20 μL of the serially diluted compound in assay buffer for 30 minutes at 37° C. in a humidified environment in 5% carbon dioxide. Following the 30 minute incubation, 10 μL of labeled d2 cAMP and 10 μL of anti-cAMP antibody (both diluted 1:20 in cell lysis buffer; as described in the manufacturer's assay protocol) were added to each well of the assay plate. The plates were then incubated at room temperature and after 60 minutes, changes in the HTRF signal were read with an Envision 2104 multi-label plate reader using excitation of 330 nm and emissions of 615 and 665 nm. Raw data were converted to nM cAMP by interpolation from a cAMP standard curve (as described in the manufacturer's assay protocol) and the percent effect was determined relative to a saturating concentration of the full agonist GLP-17-36 (1 μM) included on each plate. EC50 determinations were made from agonist dose-response curves analyzed with a curve fitting program using a 4-parameter logistic dose response equation.
Data set [3] addresses human GLP-1R (Homo sapiens, UniProt P43220). The data set is described as above.
Method: as §1, §2, §3, §4, §5
The nature of data set [4]: Metabolite profiling of pooled human plasma after repeat oral dosing of Compound 1 (HPLC/UV/MS). As to conditions: for observed as major or minor metabolite in human plasma: Compound 1 120 mg BID, Day 28; for Plasma Extracts: Compound 1 120 mg oral BID, Day 28, HPLC/UV/MS.
Method: Plasma samples from nine human subjects following oral administration of 120 mg BID for 28 days in a clinical study were examined for metabolites.
Individual subject's plasma (from nine human subjects with 120 mg BID dose Day 28) were pooled in proportion to the time period represented by each to yield a pool for profiling that was representative of the AUC (0-12 hr) according to the method of Hamilton et al. [Hamilton R A, Garnett W R, Kline B J. Determination of a mean valproic acid serum level by assay of a single pooled sample. […] Pooled plasma time points were first prepared by aliquoting equal amounts (1.0 mL) of plasma from each subject prior to making a single Hamilton pool. Blank plasma pools were made by taking equal aliquots of predose samples. To a 2 mL aliquot of each pooled plasma sample was added 6 mL of acetonitrile and then mixed. Protein precipitated samples were centrifuged for 5 minutes at 2000×g and the supernatants were transferred to other clean 15 mL centrifuge tubes. Samples were dried using an evaporative centrifuge set to 37° C. Samples were reconstituted using 0.2 mL of 5:95 acetonitrile:water and analyzed by HPLC/UV/MS.
Reconstituted samples were analyzed by positive ion HPLC/UV/MS using a Thermo Orbitrap Elite mass spectrometer operating in positive ion electrospray mode. Xcalibur software version 3.0.63 was used to control the HPLC/UV/MS system. Full scan data were collected at 15,000 resolution. Data dependent product ion scans of the two most intense ions found in the full scan were obtained at 15,000 resolution. The dynamic exclusion function was used with a 10 second exclusion duration after 3 successive product ion scans with an early exclusion if the precursor ion fell below a signal to noise ratio of 20. The HPLC system consisted of an Accela quaternary solvent delivery pump, an Accela autoinjector, an Accela PDA Plus photodiode array detector (Thermo Electron Corporation). Chromatography was performed on a Phenomenex Kinetex column (2.1 mm×100 mm, 2.6 μm) at 45° C. using a HotSleeve column heater (Analytical Sales and Services). The mobile phase was composed of 0.1% formic acid in water (solvent A) and acetonitrile (solvent B). The solvent delivery gradient program was as follows:

The structures appear in SMILES notation.

What is called Emax is the greatest response seen or fitted, relative to the assay's reference. Broadly, the EC50 is the concentration needed to bring the measured effect to its halfway point. Read a low EC50 as greater potency.

T1 sequence (P43220 24-463 L260F): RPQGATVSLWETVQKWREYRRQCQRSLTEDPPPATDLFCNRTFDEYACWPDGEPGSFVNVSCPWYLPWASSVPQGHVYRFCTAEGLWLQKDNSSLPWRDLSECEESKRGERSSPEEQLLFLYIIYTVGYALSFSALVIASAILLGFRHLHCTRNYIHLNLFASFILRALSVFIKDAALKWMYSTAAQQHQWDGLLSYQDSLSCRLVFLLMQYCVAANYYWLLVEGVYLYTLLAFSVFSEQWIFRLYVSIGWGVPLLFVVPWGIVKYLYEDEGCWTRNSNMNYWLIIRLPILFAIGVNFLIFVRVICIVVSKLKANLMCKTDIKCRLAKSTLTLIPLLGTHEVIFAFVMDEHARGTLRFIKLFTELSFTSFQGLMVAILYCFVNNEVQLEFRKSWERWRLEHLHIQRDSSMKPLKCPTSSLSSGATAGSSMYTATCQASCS
Chain of human GLP-1R (Homo sapiens, UniProt P43220) (P43220 24-463 G168S): as the sequence (P43220 24-463 L260F) above, with G145S, F237L counted along it
Chain of human GLP-1R (Homo sapiens, UniProt P43220, G168S) (P43220 24-463 G168S): as the sequence (P43220 24-463 L260F) above, with G145S, F237L counted along it

In the case of `N#Cc1ccc(COc2cccc(C3CCN(Cc4nc5ccc(C(=O)O[C@@H]6O[C@H](C(=O)O)[C@@H](O)[C@H](O)[C@H]6O)cc5n4C[C@@H]4CCO4)CC3)n2)c(F)c1` [Compound M1, (2S,3S,4S,5R,6S)-6-((2-((4-(6-((4-cyano-2-fluorobenzyl)oxy)pyridin-2-yl)piperidin-1-yl)methyl)-1-(((S)-oxetan-2-yl)methyl)-1H-benzo[d]imidazole-6-carbonyl)oxy)-3,4,5-trihydroxytetrahydro-2H-pyran-2-carboxylic acid], the figures for the Emax at human GLP-1R [1] and on human GLP-1R [2] were 98% and 114%, respectively. For the same molecule, the figures for the EC50 on human GLP-1R [1] and on human GLP-1R [3] were 2.5 µM and 0.13 µM, respectively. Further, the “observed as major or minor metabolite in human plasma” value in data set [4] is reported as “minor metabolite”. Further, the “Plasma Extracts” value in data set [4] is “+”.
As to `O=C(O)c1ccc2nc(CN3CCC(c4cccc(=O)[nH]4)CC3)n(C[C@@H]3CCO3)c2c1` [Compound M2, (S)-2-((4-(6-hydroxypyridin-2-yl)piperidin-1-yl)methyl)-1-(oxetan-2-ylmethyl)-1H-benzo[d]imidazole-6-carboxylic acid], the Emax at human GLP-1R [1] came out at 0%; on human GLP-1R [2], 2%. The EC50 at human GLP-1R [1] and on human GLP-1R [3] was > 20 µM each time. Further, in data set [4], the “observed as major or minor metabolite in human plasma” value is reported as “major circulating metabolite”. For the same molecule, the “Plasma Extracts” value in data set [4] is given as “+++”.

The values above are taken from patent US12065434B2, “Metabolites of GLP1R agonists” (Pfizer Inc., priority 2020, dated 2024).
